{"source": "patent US20080305536A1", "about": "“Method for Culturing Microorganisms” (priority 2005, published 2008)", "system": "NCIMB 11955", "details": "USM, 1% glucose, 60° C., 250 rpm, grown for 36 hours; flasks with 0, 1, 2, 3 or 4% ethanol; FIG. 1", "description": "Ethanol tolerance of a wild-type organism (NCIMB 11955) was tested in order to determine the starting point. The organism was grown overnight (LB agar plate, 60° C.) and a colony used to inoculate an overnight culture (100 mL USM, 1% glucose, 60° C., 250 rpm). This culture was then used to inoculate a triplicate series of flasks containing 0, 1, 2, 3, or 4% ethanol which were then grown for 36 hours before the growth was measured (50 mL USM, 1% glucose, 60° C., 250 rpm)."}
{"smiles": "CCO", "note": "[ethanol]", "values": [{"measurement": "ethanol concentration tolerated (growth measured)", "value": "≤ 4", "unit": "%"}]}
